The record followed here is article PMC8952364, “Polyphenols as Inhibitors of Antibiotic Resistant Bacteria—Mechanisms Underlying Rutin Interference with Bacterial Virulence” (Pharmaceuticals, 2022).

The term MIC denotes the lowest concentration that inhibits growth of the organism. One may read the MBC as the smallest concentration meeting the test's criterion for killing.

Series [1] concerns 24 h old P. aeruginosa IBRS P001 biofilms. Description: Biofilm eradication, crystal violet assay (biofilm mass). Particulars: 4 MBC—4 mg/mL, 24 h treatment. Format: cell-based, Pseudomonas aeruginosa. The method, then:
After incubation, each well was washed twice with sterile PBS (phosphate-buffered saline, pH 7.4) and fixed with methanol for 10 min. After removal of methanol the plate was air-dried. The biofilm was stained with 0.1% crystal violet (Bio-Merieux, Marcy l’Etoile, France) for 30 min. The plate was washed with water, air dried, and the stain was dissolved with 200 μL of 96% ethanol (Zorka, Sabac, Serbia). The absorbance was read at 620 nm on a Multiskan™ FC microplate photometer (Thermo Scientific™, Waltham, MA, USA). The results are presented as biofilm forming capacity (%) compared to control.
(§1) The bacterial cells were incubated in TSB enriched with 2% glucose in 96-well plates (Sarstedt, Germany) with adhesive bottom at 37 °C for 24 h. After incubation, wells were washed with PBS, and rutin (MBC–4 MBC) in TSB with 2% glucose was added. Incubation continued at 37 °C for another 24 h. The planktonic cells were removed.
(§2) The assays continued as described above for the crystal violet antibiofilm assay for the measurement of biofilm mass, biofilm MTT assay for the interference with cell viability, Congo red binding assay for estimation of exopolysaccharide production, and eDNA assay.

The test system is the same in series [2]. Description: Biofilm eradication, Congo red binding assay (exopolysaccharide). The series is classed as cell-based, Pseudomonas aeruginosa. As for the experimental part: The estimation of rutin’s impact on biofilm exopolysaccharide production (EPS) was determined by the Congo red binding assay. P. aeruginosa IBRS P001 biofilm EPS production was determined as previously described. […] The planktonic cells were removed, and the adherent cells were washed with PBS. Wells were stained with 1% (w/v) Congo red (SigmaAldrich, Germany) in the dark for 30 min. Wells were aspirated and subsequently the bound dye was solubilized with 200 μL DMSO. Absorbance at 490 nm was measured in a microtiter plate reader Multiskan™ FC microplate photometer (Thermo Scientific™, United States) and the inhibition percentage of EPS production was calculated according to the following equation:%Inhibition = [(A490control − A490sample)/A490control] × 100
as §1, §2

Series [3] deals with P. aeruginosa IBRS P001. Description: Membrane permeability assay (nucleotide and protein leakage). The series is classed as cell-based, Pseudomonas aeruginosa. The settings on record: rutin MIC; absorbance of released nucleic acids (260 nm) and proteins (280 nm) increased after 60 min. The method, then:
The effect of rutin on membrane permeability (nucleotide and protein leakage) was evaluated as described earlier with some modifications. The culture of P. aeruginosa IBRS P001 and MRSA IBRS MRSA 011 was incubated overnight at 37 °C, washed, and suspended in 10 mM PBS in order to achieve the final density of 10^8 CFU/mL. Bacteria were incubated with rutin at a concentration equal to MIC for time intervals 0, 30, 60, and 90 min. Bacteria incubated with PBS were used as control. After incubation the mixture was filtered through a 0.22 μm pore size filter to remove […]. The optical density of the filtrate was measured at 260 and 280 nm with an Agilent/HP 8453 UV-Visible Spectrophotometer (Agilent Technologies, Santa Clara, CA, USA) at room temperature (25 °C).

In series [4] the test system is lasI. Description: RT-qPCR analysis of QS genes. Format: cell-based, Pseudomonas aeruginosa. The settings on record: 0.5 MIC, 0.25 mg/mL, vs untreated control. As for the experimental part:
(§3) Reverse transcription-quantitative PCR (RT-qPCR) was performed to reveal the impact of rutin on the P. aeruginosa IBRS P001 quorum sensing (QS) regulatory genes expression. The total RNA was extracted from the P. aeruginosa IBRS P001 test strain (grown for 10 h, 37 °C, aerobically) cultivated in Mueller-Hinton medium and supplemented with rutin (0.250 mg/mL, final concentration) or without it by an RNeasy Mini Kit (Qiagen, Hilden, Germany). The same volume of the ethanol (solvent) was added in the positive control. The total RNA was then treated with DNase I using an Ambion DNA-freeTM Kit (ThermoFisher, Waltham, MA, USA) and reverse transcribed by a Rever-tAid RT Reverse transcription Kit (ThermoFisher, Waltham, MA, USA) according to the manufacturer’s instructions. […] Obtained data were normalized against the ribosomal gene rpsL as an internal control following the 2^−ΔΔCT method. Experiments were done in triplicate.

Series [5] relates to rhlI. Description: RT-qPCR analysis of QS genes. Particulars: 0.5 MIC, 0.25 mg/mL, vs untreated control. The series is classed as cell-based, Pseudomonas aeruginosa. The method, then: as §3
(Quantitative PCR measures a nucleic acid by following its amplification.)

Series [6] relates to MRSA IBRS MRSA 011. The series is classed as cell-based, Staphylococcus aureus. As for the experimental part: For the catheter biofilm eradication assay, P. aeruginosa and MRSA were incubated in TSB with 2% glucose with 1 cm long catheters in 24-well plates at 37 °C for 24 h. […] Subsequently, the catheters were washed and treated, as described above.
Series [7] deals with P. aeruginosa IBRS P001 protease production. Description: Protease assay (azocasein). The series is classed as cell-based, Pseudomonas aeruginosa. Particulars: 0.25 mg/mL (0.5 MIC), compared to the control. The method, then:
The impact of rutin on the proteolytic activity of P. aeruginosa IBRS P001 was measured using azocasein as a substrate. […] Samples were centrifuged at 9660 g, room temperature, for 10 min (Heraeus biofuge stratos centrifuge, Thermo Electron Corporation, Waltham, MA, USA). Afterwards, the supernatant was mixed with azocasein (2%, SigmaAldrich, Germany) and incubated at 37 °C for 45 min. The reaction was stopped using 10% trichloroacetic acid and centrifuged at 9660× g, RT for 10 min. After centrifugation, the absorbance of the supernatants was measured at 440 nm and protease production in the treated sample calculated compared to the control (100% production).

Series [8] relates to E. coli IMD989. Description: Antimicrobial microdilution assay (MIC/MBC). The series is classed as cell-based, Escherichia coli. Particulars: Escherichia coli, IMD989. In outline:
(§4)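 Polyphenols 0.0039–1 mg/mL, stocks in 30% ethanol; inoculum 0.5 McFarland diluted twenty-fold, mixed 1:10; 24 h, 37 °C. MIC = no visible growth (binocular microscope). Streptomycin positive control, ethanol negative control; triplicate.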
(In general: In broth dilution the organism is exposed to a series of concentrations in liquid medium.)

The subject of series [9] is E. coli IBRS E003. Description: Antimicrobial microdilution assay (MIC/MBC). Particulars: Escherichia coli, IBRSE003. The series is classed as cell-based, Escherichia coli. Summed up:
as §4

[10] abbreviates: subcultivation, 24 h at 37 °C, read-out: MBC.

Converted amounts (≈) assume the structure as drawn.

For `C[C@@H]1O[C@@H](OC[C@H]2O[C@@H](Oc3c(-c4ccc(O)c(O)c4)oc4cc(O)cc(O)c4c3=O)[C@H](O)[C@@H](O)[C@@H]2O)[C@H](O)[C@H](O)[C@H]1O` [Rutin, rutin], the “inhibition of pre-formed biofilm biomass” value in [1] is 35%. Further, the “exopolysaccharide production decreased to” value is given as 65% in [2] (2 MBC), 69% in series [2] (4 MBC) and 89% in series [2] (MBC). Further, the “cell membrane integrity, in words” value in series [3] is reported as “obstructed P. aeruginosa IBRS P001 cell membrane integrity”. In addition, the “decrease of relative expression” value in series [4] came out at 2.4 times. Also, in series [5], the “downregulation of relative mRNA level” value came to 2.6 fold. This molecule also displayed a catheter biofilm eradicated in [6] (2 MBC, 24 h old biofilm) of 74.2%. Further, the “biofilm cells remained viable after the treatment” value in [6] (24 h old catheter biofilm, concentration not printed (MBC-4MBC tested, probably 4 MBC)) was 9.6%. In addition, in series [7], the “decrease of protease production” value is “more than 50%”. Also, the MIC in [8] (37 °C, 24 h, read-out: MIC) is 1000 µg/mL (≈ 1640 µM); in series [9] (37 °C, 24 h, read-out: MIC), more than 1000 µg/mL. Besides, the MBC in series [8] (setting [10]) was 1000 µg/mL (≈ 1640 µM); in series [9] (setting [10]), more than 1000 µg/mL.
